Test results reported in ChEMBL document CHEMBL1145176, “Somatostatin receptor 1 selective analogues: 2. N(alpha)-Methylated scan” (J Med Chem, 2005).
Positions of bridges follow the written chain, without caps; N, C: chain ends. Non-standard residues stand in square brackets, D forms with d. Residues, ends and D or L forms follow the SMILES beside them. NMePhe(4-CH2NHiPr) = CN[C@@H](Cc1ccc(CNC(C)C)cc1)C(=O)O

What was measured:
[1] = target: Somatostatin receptor type 3 (Homo sapiens, UniProt P32745); experiment: Inhibition of [Leu8,D-Trp22,125I-Tyr25]SRIF-28 binding to human somatostatin receptor type 3
Chain of Somatostatin receptor type 3 (P32745 whole entry): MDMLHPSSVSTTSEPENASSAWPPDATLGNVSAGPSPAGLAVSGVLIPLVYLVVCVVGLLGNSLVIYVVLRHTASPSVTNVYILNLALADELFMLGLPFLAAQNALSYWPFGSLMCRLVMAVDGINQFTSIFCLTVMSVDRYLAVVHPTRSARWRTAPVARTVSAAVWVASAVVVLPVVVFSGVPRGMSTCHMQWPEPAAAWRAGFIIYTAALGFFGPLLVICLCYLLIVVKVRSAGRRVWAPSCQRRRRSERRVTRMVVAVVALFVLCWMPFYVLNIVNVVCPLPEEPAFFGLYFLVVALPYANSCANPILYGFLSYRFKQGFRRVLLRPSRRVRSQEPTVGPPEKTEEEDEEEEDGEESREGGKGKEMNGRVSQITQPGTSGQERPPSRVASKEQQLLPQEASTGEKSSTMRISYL

[2] = target: Somatostatin receptor type 4 (Homo sapiens, UniProt P31391); experiment: Inhibition of [Leu8,D-Trp22,125I-Tyr25]SRIF-28 binding to human somatostatin receptor type 4
Chain of Somatostatin receptor type 4 (P31391 whole entry): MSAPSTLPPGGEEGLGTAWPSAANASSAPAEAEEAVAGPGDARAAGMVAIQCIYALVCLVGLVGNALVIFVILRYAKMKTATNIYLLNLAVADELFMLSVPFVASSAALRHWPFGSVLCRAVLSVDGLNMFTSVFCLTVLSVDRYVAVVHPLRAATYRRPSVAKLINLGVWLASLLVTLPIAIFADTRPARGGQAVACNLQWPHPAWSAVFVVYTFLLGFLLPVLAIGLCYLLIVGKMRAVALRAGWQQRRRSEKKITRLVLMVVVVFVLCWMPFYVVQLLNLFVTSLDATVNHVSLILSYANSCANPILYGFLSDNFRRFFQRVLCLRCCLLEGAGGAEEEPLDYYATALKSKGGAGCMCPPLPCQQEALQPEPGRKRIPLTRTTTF

[3] = target: Somatostatin receptor type 1 (Homo sapiens, UniProt P30872); experiment: Inhibition of [Leu8,D-Trp22,125I-Tyr25]SRIF-28 binding to human somatostatin receptor type 1
Chain of Somatostatin receptor type 1 (P30872 whole entry): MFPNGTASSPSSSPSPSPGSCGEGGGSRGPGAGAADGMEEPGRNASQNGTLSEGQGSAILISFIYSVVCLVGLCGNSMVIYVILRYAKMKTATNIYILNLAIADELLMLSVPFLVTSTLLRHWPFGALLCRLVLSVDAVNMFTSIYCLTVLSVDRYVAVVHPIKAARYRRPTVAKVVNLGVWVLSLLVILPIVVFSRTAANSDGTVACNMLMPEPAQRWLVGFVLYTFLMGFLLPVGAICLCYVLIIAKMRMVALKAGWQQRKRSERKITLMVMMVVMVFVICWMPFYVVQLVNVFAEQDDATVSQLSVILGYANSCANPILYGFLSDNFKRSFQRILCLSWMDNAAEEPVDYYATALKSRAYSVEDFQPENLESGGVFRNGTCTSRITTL

[4] = target: Somatostatin receptor type 2 (Homo sapiens, UniProt P30874); experiment: Inhibition of [Leu8,D-Trp22,125I-Tyr25]SRIF-28 binding to human somatostatin receptor type 2
Chain of Somatostatin receptor type 2 (P30874 whole entry): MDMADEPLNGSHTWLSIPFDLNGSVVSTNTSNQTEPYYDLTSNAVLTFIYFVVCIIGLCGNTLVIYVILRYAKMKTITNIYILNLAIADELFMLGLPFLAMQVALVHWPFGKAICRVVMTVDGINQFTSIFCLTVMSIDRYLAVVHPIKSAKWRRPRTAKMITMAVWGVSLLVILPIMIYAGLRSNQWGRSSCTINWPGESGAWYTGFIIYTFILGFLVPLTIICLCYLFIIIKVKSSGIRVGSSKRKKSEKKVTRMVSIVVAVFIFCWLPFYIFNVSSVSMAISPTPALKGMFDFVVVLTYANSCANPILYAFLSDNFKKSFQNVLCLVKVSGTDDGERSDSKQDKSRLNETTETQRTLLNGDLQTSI

[5] = target: Somatostatin receptor type 5 (Homo sapiens, UniProt P35346); experiment: Inhibition of [Leu8,D-Trp22,125I-Tyr25]SRIF-28 binding to human somatostatin receptor type 5
Chain of Somatostatin receptor type 5 (P35346 whole entry): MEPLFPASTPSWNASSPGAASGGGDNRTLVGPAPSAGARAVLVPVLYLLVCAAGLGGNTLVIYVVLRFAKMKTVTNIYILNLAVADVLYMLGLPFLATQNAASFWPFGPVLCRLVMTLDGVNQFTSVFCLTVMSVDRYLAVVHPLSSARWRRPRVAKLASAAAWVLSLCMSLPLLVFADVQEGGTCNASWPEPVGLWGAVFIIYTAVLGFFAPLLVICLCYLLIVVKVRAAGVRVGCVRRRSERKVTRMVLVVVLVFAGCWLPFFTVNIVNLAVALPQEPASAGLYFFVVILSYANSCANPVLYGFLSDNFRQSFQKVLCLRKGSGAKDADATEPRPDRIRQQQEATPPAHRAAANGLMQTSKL

SMILES	IC50 [1] [nM]	IC50 [2] [nM]	IC50 [3] [nM]	IC50 [4] [nM]	IC50 [5] [nM]
CN[C@H]1CSSC[C@@H](C(=O)O)NC(=O)[C@H](CO)NC(=O)[C@H]([C@@H](C)O)NC(=O)[C@H](Cc2ccccc2)NC(=O)[C@H]([C@@H](C)O)NC(=O)[C@H](Cc2ccc(CNC(C)C)cc2)NC(=O)[C@@H](Cc2ccc3ccccc3c2)NC(=O)[C@H](Cc2ccccc2)NC(=O)[C@H](Cc2ccccc2)NC(=O)[C@H](CCCCN)NC1=O	> 1000	> 1000	113	> 1000	> 1000
CC(C)NCc1ccc(C[C@@H]2NC(=O)[C@@H](Cc3c[nH]c4ccccc34)NC(=O)[C@H](Cc3ccccc3)NC(=O)[C@H](Cc3ccccc3)NC(=O)[C@H](CCCCN)NC(=O)[C@@H](N)CSSC[C@@H](C(=O)N[C@@H](CCCCN)C(=O)N[C@@H](CCCCN)C(=O)N[C@@H](CCCCN)C(=O)O)N(C)C(=O)[C@H](CO)NC(=O)[C@H]([C@@H](C)O)NC(=O)[C@H](Cc3ccccc3)NC(=O)[C@H]([C@@H](C)O)NC2=O)cc1	> 1000	> 1000	30	> 1000	803
CC(C)NCc1ccc(C[C@@H]2NC(=O)[C@@H](Cc3ccc4ccccc4c3)NC(=O)[C@H](Cc3ccccc3)NC(=O)[C@H](Cc3ccccc3)NC(=O)[C@H](CCCCN)NC(=O)[C@@H](N)CSSC[C@@H](C(=O)N[C@@H](CCCCN)C(=O)N[C@@H](CCCCN)C(=O)N[C@@H](CCCCN)C(=O)O)N(C)C(=O)[C@H](CO)NC(=O)[C@H]([C@@H](C)O)NC(=O)[C@H](Cc3ccccc3)NC(=O)[C@H]([C@@H](C)O)NC2=O)cc1	620	> 1000	144	> 1000	> 1000
CC(C)NCc1ccc(C[C@@H]2NC(=O)[C@@H](Cc3c[nH]c4ccccc34)NC(=O)[C@H](Cc3ccccc3)NC(=O)[C@H](Cc3ccccc3)NC(=O)[C@H](CCCCN)NC(=O)[C@@H](N)CSSC[C@@H](C(=O)N[C@@H](CCCCN)C(=O)N[C@@H](CCCCN)C(=O)O)NC(=O)[C@H](CO)N(C)C(=O)[C@H]([C@@H](C)O)NC(=O)[C@H](Cc3ccccc3)NC(=O)[C@H]([C@@H](C)O)NC2=O)cc1	> 1000	> 1000	53	> 1000	682
CC(C)NCc1ccc(C[C@@H]2NC(=O)[C@@H](Cc3c[nH]c4ccccc34)NC(=O)[C@H](Cc3ccccc3)NC(=O)[C@H](Cc3ccccc3)NC(=O)[C@H](CCCCN)NC(=O)[C@@H](N)CSSC[C@@H](C(=O)O)N(C)C(=O)[C@H](CO)NC(=O)[C@H]([C@@H](C)O)NC(=O)[C@H](Cc3ccccc3)NC(=O)[C@H]([C@@H](C)O)NC2=O)cc1	> 1000	> 1000	151	> 1000	> 1000
CC(C)NCc1ccc(C[C@@H]2NC(=O)[C@@H](Cc3ccc4ccccc4c3)NC(=O)[C@H](Cc3ccccc3)NC(=O)[C@H](Cc3ccccc3)NC(=O)[C@H](CCCCN)NC(=O)[C@@H](N)CSSC[C@@H](C(=O)O)NC(=O)[C@H](CO)NC(=O)[C@H]([C@@H](C)O)NC(=O)[C@H](Cc3ccccc3)N(C)C(=O)[C@H]([C@@H](C)O)NC2=O)cc1	> 1000	> 1000	583	> 1000	> 1000
CC(C)NCc1ccc(C[C@@H]2NC(=O)[C@@H](Cc3ccc4ccccc4c3)NC(=O)[C@H](Cc3ccccc3)NC(=O)[C@H](Cc3ccccc3)NC(=O)[C@H](CCCCN)NC(=O)[C@@H](N)CSSC[C@@H](C(=O)O)NC(=O)[C@H](CO)NC(=O)[C@H]([C@@H](C)O)NC(=O)[C@H](Cc3ccccc3)NC(=O)[C@H]([C@@H](C)O)N(C)C2=O)cc1	> 1000	> 1000	> 1000	> 1000	> 1000
CC(C)NCc1ccc(C[C@@H]2NC(=O)[C@@H](Cc3ccc4ccccc4c3)NC(=O)[C@H](Cc3ccccc3)NC(=O)[C@H](Cc3ccccc3)NC(=O)[C@H](CCCCN)NC(=O)[C@@H](N)CSSC[C@@H](C(=O)O)N(C)C(=O)[C@H](CO)NC(=O)[C@H]([C@@H](C)O)NC(=O)[C@H](Cc3ccccc3)NC(=O)[C@H]([C@@H](C)O)NC2=O)cc1	> 1000	> 1000	260	> 1000	> 1000
CC(C)NCc1ccc(C[C@@H]2NC(=O)[C@@H](Cc3ccc4ccccc4c3)NC(=O)[C@H](Cc3ccccc3)N(C)C(=O)[C@H](Cc3ccccc3)NC(=O)[C@H](CCCCN)NC(=O)[C@@H](N)CSSC[C@@H](C(=O)O)NC(=O)[C@H](CO)NC(=O)[C@H]([C@@H](C)O)NC(=O)[C@H](Cc3ccccc3)NC(=O)[C@H]([C@@H](C)O)NC2=O)cc1	> 1000	> 1000	> 1000	> 1000	> 1000
CC(C)NCc1ccc(C[C@@H]2NC(=O)[C@@H](Cc3ccc4ccccc4c3)NC(=O)[C@H](Cc3ccccc3)NC(=O)[C@H](Cc3ccccc3)N(C)C(=O)[C@H](CCCCN)NC(=O)[C@@H](N)CSSC[C@@H](C(=O)O)NC(=O)[C@H](CO)NC(=O)[C@H]([C@@H](C)O)NC(=O)[C@H](Cc3ccccc3)NC(=O)[C@H]([C@@H](C)O)NC2=O)cc1	> 1000	> 1000	> 1000	> 1000	> 1000

Next, values leading:

IC50 [1] [nM]	IC50 [2] [nM]	IC50 [3] [nM]	IC50 [4] [nM]	IC50 [5] [nM]	SMILES
900	> 1000	> 1000	–	–	CC(C)NCc1ccc(C[C@@H]2NC(=O)[C@@H](N(C)C(=O)c3ccc4ccccc4c3)NC(=O)[C@H](Cc3ccccc3)NC(=O)[C@H](Cc3ccccc3)NC(=O)[C@H](CCCCN)NC(=O)[C@@H](N)CSSC[C@@H](C(=O)O)NC(=O)[C@H](CO)NC(=O)[C@H]([C@@H](C)O)NC(=O)[C@H](Cc3ccc(O)cc3)NC(=O)[C@H]([C@@H](C)O)NC2=O)cc1
8	0.5	10	16	4.8	C[C@@H](O)[C@@H]1NC(=O)[C@H](Cc2ccc(O)cc2)NC(=O)[C@H]([C@@H](C)O)NC(=O)[C@H](CCCCN)NC(=O)[C@@H](Cc2c[nH]c3ccccc23)NC(=O)[C@H](Cc2ccccc2)NC(=O)[C@H](Cc2ccccc2)NC(=O)[C@H](CCCCN)NC(=O)[C@@H](N)CSSC[C@@H](C(=O)O)NC(=O)[C@H](CO)NC1=O
> 1000	> 1000	255	> 1000	> 1000	CC(C)NCc1ccc(C[C@@H]2NC(=O)[C@@H](Cc3ccc4ccccc4c3)NC(=O)[C@H](Cc3ccccc3)NC(=O)[C@H](Cc3ccccc3)NC(=O)[C@H](CCCCN)NC(=O)[C@@H](N)CSSC[C@@H](C(=O)N[C@@H](CCCCN)C(=O)O)N(C)C(=O)[C@H](CO)NC(=O)[C@H]([C@@H](C)O)NC(=O)[C@H](Cc3ccccc3)NC(=O)[C@H]([C@@H](C)O)NC2=O)cc1
> 1000	> 1000	71	> 1000	> 1000	CC(C)NCc1ccc(C[C@@H]2NC(=O)[C@@H](Cc3ccc4ccccc4c3)NC(=O)[C@H](Cc3ccccc3)NC(=O)[C@H](Cc3ccccc3)NC(=O)[C@H](CCCCN)NC(=O)[C@@H](N)CSSC[C@@H](C(=O)O)NC(=O)[C@H](CO)N(C)C(=O)[C@H]([C@@H](C)O)NC(=O)[C@H](Cc3ccccc3)NC(=O)[C@H]([C@@H](C)O)NC2=O)cc1
> 1000	> 1000	35	> 1000	> 1000	CC(C)NCc1ccc(C[C@@H]2NC(=O)[C@@H](Cc3c[nH]c4ccccc34)NC(=O)[C@H](Cc3ccccc3)NC(=O)[C@H](Cc3ccccc3)NC(=O)[C@H](CCCCN)NC(=O)[C@@H](N)CSSC[C@@H](C(=O)N[C@@H](CCCCN)C(=O)O)N(C)C(=O)[C@H](CO)NC(=O)[C@H]([C@@H](C)O)NC(=O)[C@H](Cc3ccccc3)NC(=O)[C@H]([C@@H](C)O)NC2=O)cc1
> 1000	> 1000	535	> 1000	> 1000	CC(C)NCc1ccc(C[C@@H]2NC(=O)[C@@H](Cc3ccc4ccccc4c3)NC(=O)[C@H](Cc3ccccc3)NC(=O)[C@H](Cc3ccccc3)NC(=O)[C@H](CCCCN)N(C)C(=O)[C@@H](N)CSSC[C@@H](C(=O)O)NC(=O)[C@H](CO)NC(=O)[C@H]([C@@H](C)O)NC(=O)[C@H](Cc3ccccc3)NC(=O)[C@H]([C@@H](C)O)NC2=O)cc1
> 1000	> 1000	325	> 1000	> 1000	CC(C)NCc1ccc(C[C@@H]2NC(=O)[C@@H](Cc3ccc4ccccc4c3)N(C)C(=O)[C@H](Cc3ccccc3)NC(=O)[C@H](Cc3ccccc3)NC(=O)[C@H](CCCCN)NC(=O)[C@@H](N)CSSC[C@@H](C(=O)O)NC(=O)[C@H](CO)NC(=O)[C@H]([C@@H](C)O)NC(=O)[C@H](Cc3ccccc3)NC(=O)[C@H]([C@@H](C)O)NC2=O)cc1
> 1000	417	176	> 1000	> 1000	CC(C)NCc1ccc(C[C@@H]2NC(=O)[C@@H](Cc3ccc4ccccc4c3)NC(=O)[C@H](Cc3ccccc3)NC(=O)[C@H](Cc3ccccc3)NC(=O)[C@H](CCCCN)NC(=O)[C@@H](N)CSSC[C@@H](C(=O)O)NC(=O)[C@H](CO)NC(=O)[C@H]([C@@H](C)O)N(C)C(=O)[C@H](Cc3ccccc3)NC(=O)[C@H]([C@@H](C)O)NC2=O)cc1
–	245	16	> 1000	–	CC(C)NCc1ccc(C[C@H]2C(=O)N[C@@H]([C@@H](C)O)C(=O)N[C@@H](Cc3ccccc3)C(=O)N[C@@H]([C@@H](C)O)C(=O)N[C@@H](CO)C(=O)N[C@H](C(=O)O)CSSC[C@H](NC(=O)[C@@H](N)Cc3ccc(O)cc3)C(=O)N[C@@H](CCCCN)C(=O)N[C@@H](Cc3ccccc3)C(=O)N[C@@H](Cc3ccccc3)C(=O)N[C@H](Cc3c[nH]c4ccccc34)C(=O)N2C)cc1 (H-YCKFF[dW][NMePhe(4-CH2NHiPr)]TFTSC-OH; disulfide 2-12)
